# Organism: Rattus norvegicus
# Assay: DrugMatrix - Regimen: Daily Repeat
# Format: toxicity, organism-based, Sprague-Dawley
# Parameters: regimen Daily Repeat, gender Male, age 6-8 weeks
# Conditions: in vivo, po, 100 mg/kg, route oral GAVAGE, […]; for ABSOLUTE BASOPHIL / ABSOLUTE EOSINOPHIL / ABSOLUTE LYMPHOCYTE / ABSOLUTE MONOCYTE / ABSOLUTE SEGMENTED NEUTROPHIL / BASOPHIL / EOSINOPHIL / ERYTHROCYTE COUNT / HEMATOCRIT / HEMOGLOBIN / LEUKOCYTE COUNT / LYMPHOCYTE / MEAN CORPUSCULAR HEMOGLOBIN / MEAN CORPUSCULAR HEMOGLOBIN CONCENTRATION / MEAN CORPUSCULAR VOLUME / MONOCYTE / NEUTROPHIL / NUCLEATED RED BLOOD CELLS / PLATELET COUNT: tissue Blood; for ALANINE AMINOTRANSFERASE / ALBUMIN / ALKALINE PHOSPHATASE / ASPARTATE AMINOTRANSFERASE / BLOOD UREA NITROGEN / CARBON DIOXIDE / CHLORIDE / CHOLESTEROL / CREATINE PHOSPHOKINASE / CREATININE / GLUCOSE / LACTATE DEHYDROGENASE / LIPASE / PHOSPHORUS / POTASSIUM / SODIUM / TOTAL BILIRUBIN / TOTAL PROTEIN / URIC ACID: tissue Plasma
# [1] = 72 h, dose level Low, time 3 day
# [2] = 120 h, dose level High, time 5 day
compound,measurement,setting,value
CC(C)(Oc1ccc(CCNC(=O)c2ccc(Cl)cc2)cc1)C(=O)O [BEZAFIBRATE],ABSOLUTE BASOPHIL,[1],0 CELLS/uL
same,ABSOLUTE EOSINOPHIL,[1],180.5 CELLS/uL
same,ABSOLUTE LYMPHOCYTE,[1],13739.67 CELLS/uL
same,ABSOLUTE MONOCYTE,[1],378 CELLS/uL
same,ABSOLUTE SEGMENTED NEUTROPHIL,[1],1401.83 CELLS/uL
same,BASOPHIL,[1],0%
same,EOSINOPHIL,[1],1.17%
same,ERYTHROCYTE COUNT,[1],5.45 x10E6/uL
same,HEMATOCRIT,[1],33.9%
same,HEMOGLOBIN,[1],13.37 G/DL
same,LEUKOCYTE COUNT,[1],15.7 x10E3/uL
same,LYMPHOCYTE,[1],87.33%
same,MEAN CORPUSCULAR HEMOGLOBIN,[1],24.55 pg
same,MEAN CORPUSCULAR HEMOGLOBIN CONCENTRATION,[1],39.42 G/DL
same,MEAN CORPUSCULAR VOLUME,[1],62.22 fL
same,MONOCYTE,[1],2.33%
same,NEUTROPHIL,[1],9.17%
same,NUCLEATED RED BLOOD CELLS,[1],0 /100WBC
same,PLATELET COUNT,[1],1134.83 x10E3/uL
same,ALANINE AMINOTRANSFERASE,[1],55.83 u/L
same,ALBUMIN,[1],4.3 G/DL
same,ALKALINE PHOSPHATASE,[1],373.17 u/L
same,ASPARTATE AMINOTRANSFERASE,[1],81 u/L
same,BLOOD UREA NITROGEN,[1],13.33 mg/dL
same,CARBON DIOXIDE,[1],28.33 mmol/L
same,CHLORIDE,[1],103.17 MEQ/L
same,CHOLESTEROL,[1],50.33 mg/dL
same,CREATINE PHOSPHOKINASE,[1],275.67 u/L
same,CREATININE,[1],0.14 mg/dL
same,GLUCOSE,[1],153.33 mg/dL
same,LACTATE DEHYDROGENASE,[1],111.33 u/L
same,LIPASE,[1],9.67 u/L
same,PHOSPHORUS,[1],10.52 mg/dL
same,POTASSIUM,[1],6.12 MEQ/L
same,SODIUM,[1],143.38 MEQ/L
same,TOTAL BILIRUBIN,[1],0.17 mg/dL
same,TOTAL PROTEIN,[1],5.68 G/DL
same,URIC ACID,[1],1.27 mg/dL
same,BASOPHIL,[2],0.3%
same,EOSINOPHIL,[2],0.42%
same,ERYTHROCYTE COUNT,[2],6.75 x10E6/uL
same,HEMATOCRIT,[2],45.06%
same,HEMOGLOBIN,[2],14.3 G/DL
same,LEUKOCYTE COUNT,[2],9.46 x10E3/uL
same,LYMPHOCYTE,[2],82.9%
same,MEAN CORPUSCULAR HEMOGLOBIN,[2],21.18 pg
same,MEAN CORPUSCULAR HEMOGLOBIN CONCENTRATION,[2],31.76 G/DL
same,MEAN CORPUSCULAR VOLUME,[2],66.76 fL
same,MONOCYTE,[2],2.08%
same,NEUTROPHIL,[2],12.9%
same,PLATELET COUNT,[2],1359.2 x10E3/uL
same,ALANINE AMINOTRANSFERASE,[2],30.4 u/L
same,ALBUMIN,[2],3.86 G/DL
same,ALKALINE PHOSPHATASE,[2],393.2 u/L
same,ASPARTATE AMINOTRANSFERASE,[2],76.8 u/L
same,BLOOD UREA NITROGEN,[2],8 mg/dL
same,CHLORIDE,[2],110.2 MEQ/L
same,CHOLESTEROL,[2],53.8 mg/dL
same,CREATINE PHOSPHOKINASE,[2],309.2 u/L
same,CREATININE,[2],0.58 mg/dL
same,GLUCOSE,[2],111.8 mg/dL
same,PHOSPHORUS,[2],13.26 mg/dL
same,POTASSIUM,[2],5.98 MEQ/L
same,SODIUM,[2],150.8 MEQ/L
same,TOTAL BILIRUBIN,[2],0.2 mg/dL
same,TOTAL PROTEIN,[2],5.94 G/DL
same,BASOPHIL,"dose level High, time 28 day",0.53%
same,EOSINOPHIL,"dose level High, time 28 day",0.56%
same,ERYTHROCYTE COUNT,"dose level High, time 28 day",7.67 x10E6/uL
same,HEMATOCRIT,"dose level High, time 28 day",46.81%
same,HEMOGLOBIN,"dose level High, time 28 day",15.51 G/DL
same,LEUKOCYTE COUNT,"dose level High, time 28 day",10.2 x10E3/uL
same,LYMPHOCYTE,"dose level High, time 28 day",83.76%
same,MEAN CORPUSCULAR HEMOGLOBIN,"dose level High, time 28 day",20.22 pg
same,MEAN CORPUSCULAR HEMOGLOBIN CONCENTRATION,"dose level High, time 28 day",33.13 G/DL
same,MEAN CORPUSCULAR VOLUME,"dose level High, time 28 day",61.05 fL
same,MONOCYTE,"dose level High, time 28 day",1.65%
same,NEUTROPHIL,"dose level High, time 28 day",12.36%
same,PLATELET COUNT,"dose level High, time 28 day",1339.5 x10E3/uL
same,ABSOLUTE BASOPHIL,"dose level Low, time 7 day",0 CELLS/uL
same,ABSOLUTE EOSINOPHIL,"dose level Low, time 7 day",36.5 CELLS/uL
same,ABSOLUTE LYMPHOCYTE,"dose level Low, time 7 day",7716 CELLS/uL
same,ABSOLUTE MONOCYTE,"dose level Low, time 7 day",109.33 CELLS/uL
same,ABSOLUTE SEGMENTED NEUTROPHIL,"dose level Low, time 7 day",821.5 CELLS/uL
same,BASOPHIL,"dose level Low, time 7 day",0%
same,EOSINOPHIL,"dose level Low, time 7 day",0.5%
same,ERYTHROCYTE COUNT,"dose level Low, time 7 day",5.31 x10E6/uL
same,HEMATOCRIT,"dose level Low, time 7 day",33.28%
same,HEMOGLOBIN,"dose level Low, time 7 day",13.1 G/DL
same,LEUKOCYTE COUNT,"dose level Low, time 7 day",8.68 x10E3/uL
same,LYMPHOCYTE,"dose level Low, time 7 day",88.67%
same,MEAN CORPUSCULAR HEMOGLOBIN,"dose level Low, time 7 day",24.67 pg
same,MEAN CORPUSCULAR HEMOGLOBIN CONCENTRATION,"dose level Low, time 7 day",39.37 G/DL
same,MEAN CORPUSCULAR VOLUME,"dose level Low, time 7 day",62.68 fL
same,MONOCYTE,"dose level Low, time 7 day",1.33%
same,NEUTROPHIL,"dose level Low, time 7 day",9.5%
same,NUCLEATED RED BLOOD CELLS,"dose level Low, time 7 day",0 /100WBC
same,PLATELET COUNT,"dose level Low, time 7 day",1167.33 x10E3/uL
same,ALANINE AMINOTRANSFERASE,"dose level High, time 28 day",33.6 u/L
same,ALBUMIN,"dose level High, time 28 day",4.04 G/DL
same,ALKALINE PHOSPHATASE,"dose level High, time 28 day",358.2 u/L
same,ASPARTATE AMINOTRANSFERASE,"dose level High, time 28 day",65.4 u/L
same,BLOOD UREA NITROGEN,"dose level High, time 28 day",15.6 mg/dL
same,CHLORIDE,"dose level High, time 28 day",108.6 MEQ/L
same,CHOLESTEROL,"dose level High, time 28 day",43.2 mg/dL
same,CREATINE PHOSPHOKINASE,"dose level High, time 28 day",130.9 u/L
same,CREATININE,"dose level High, time 28 day",0.51 mg/dL
same,GLUCOSE,"dose level High, time 28 day",147.9 mg/dL
same,PHOSPHORUS,"dose level High, time 28 day",11.62 mg/dL
same,POTASSIUM,"dose level High, time 28 day",6.83 MEQ/L
same,SODIUM,"dose level High, time 28 day",152.6 MEQ/L
same,TOTAL BILIRUBIN,"dose level High, time 28 day",0.2 mg/dL
same,TOTAL PROTEIN,"dose level High, time 28 day",6.41 G/DL
same,ALANINE AMINOTRANSFERASE,"dose level Low, time 7 day",52.17 u/L
same,ALBUMIN,"dose level Low, time 7 day",4.67 G/DL
same,ALKALINE PHOSPHATASE,"dose level Low, time 7 day",346.67 u/L
same,ASPARTATE AMINOTRANSFERASE,"dose level Low, time 7 day",68.17 u/L
same,BLOOD UREA NITROGEN,"dose level Low, time 7 day",17.67 mg/dL
same,CARBON DIOXIDE,"dose level Low, time 7 day",30.83 mmol/L
same,CHLORIDE,"dose level Low, time 7 day",102.83 MEQ/L
same,CHOLESTEROL,"dose level Low, time 7 day",57.83 mg/dL
same,CREATINE PHOSPHOKINASE,"dose level Low, time 7 day",307.17 u/L
same,CREATININE,"dose level Low, time 7 day",0.24 mg/dL
same,GLUCOSE,"dose level Low, time 7 day",145.67 mg/dL
same,LACTATE DEHYDROGENASE,"dose level Low, time 7 day",85.5 u/L
same,LIPASE,"dose level Low, time 7 day",9.33 u/L
same,PHOSPHORUS,"dose level Low, time 7 day",11.1 mg/dL
same,POTASSIUM,"dose level Low, time 7 day",5.85 MEQ/L
same,SODIUM,"dose level Low, time 7 day",143.98 MEQ/L
same,TOTAL BILIRUBIN,"dose level Low, time 7 day",0.1 mg/dL
same,TOTAL PROTEIN,"dose level Low, time 7 day",6.2 G/DL
same,URIC ACID,"dose level Low, time 7 day",0.62 mg/dL

# Reference: ChEMBL document CHEMBL3885881, “DrugMatrix”
